The values that follow come from US8592486B2, “Compounds for inflammation and immune-related uses” (Synta Pharmaceuticals Corp., priority 2005, dated 2013).

Counter-ions that a name gives are not always drawn. Like-named read-outs stand apart in the source and are kept apart here.

Assay [1] has as its system degranulation in RBL cells. The experiment in a line: Inhibition of degranulation in RBL cells. Format: cell-based. The conditions noted are these: Rattus norvegicus, anti-DNP IgE, read-out: IC50 (concentration which inhibits 50% of degranulation in RBL cells). The method, then: The day before the assay was performed, RBL cells, that had been grown to confluence in a 96 well plate, were incubated at 37° C. for at least 2 hours. The medium was replaced in each well with 100 μL of fresh medium containing […] of anti-DNP IgE.
On the following day, the cells were washed once with PRS (2.6 mM glucose and 0.1% BSA) and 160 μL of PRS was added to each well. A test compound was added to a well in a 20 μL solution at 10× of the desired concentration and incubated for 20 to 40 minutes at 37° C. 20 μL of 10× mouse anti-IgE ([…]) was added. Maximum degranulation occurred between 15 to 40 minutes after addition of anti-IgE.

For a further assay, the system named is IL-2 production. Briefly: Inhibition of IL-2 production in PHA-activated Jurkat cells (ELISA). The conditions noted are these: Homo sapiens, Jurkat cells, PHA 2.5 μg/mL, 20 hours, IL-2 ELISA, read-out: IC50 (inhibition of IL-2 production). Format: cell-based, human. (In general: In an ELISA, binding on a coated surface is turned into a signal by an enzyme label.)

On to `COC(=O)c1ccc(C)c(-c2ccc(NC(=O)c3ccncc3F)cc2)c1` [Compound 12, 4′-[(3-Fluoro-pyridine-4-carbonyl)-amino]-6-methyl-biphenyl-3-carboxylic acid methyl ester], for which the IC50 in assay [1] is 480 nM; in the assay with IL-2 production (Jurkat, 20 h), 5 nM.

On to `Cc1cnccc1C(=O)Nc1ccc(-c2cc(-c3nccs3)ccc2C)cc1` [Compound 9, 3-Methyl-N-(2′-methyl-5′-thiazol-2-yl-biphenyl-4-yl)-isonicotinamide, HCl salt], for which the IC50 turned out to be 1410 nM in assay [1] and 7 nM in the assay with IL-2 production (Jurkat, 20 h).

As to `COc1ccc(CCCOC(Cn2ccnc2)c2ccc(OC)cc2)cc1` (centres unmarked) [SKF96365, reference compound], in assay [1] (RBL), the IC50 was > 20000 nM.

In the case of `Cc1ccc(-c2ncco2)cc1-c1ccc(NC(=O)c2c(F)cccc2F)cc1` [Compound 3, 2,6-Difluoro-N-(2′-methyl-5′-oxazol-2-yl-biphenyl-4-yl)-bezamide], the IC50 in assay [1] came to 4500 nM; in the assay on IL-2 production (Jurkat, 20 h), 1.6 nM.

Regarding `COCCOC(=O)c1ccc(Cl)c(-c2ccc(NC(=O)c3c(F)cccc3F)cc2)c1` [Compound 2, 6-Chloro-4′-(2,6-difluoro-benzoylamino)-biphenyl-3-(carboxylic acid 2-methoxyethyl ester)], the IC50 in assay [1] stood at 4850 nM; in the assay with IL-2 production (Jurkat, 20 h), 9 nM.

`COc1ncc(Cl)cc1-c1ccc(NC(=O)c2c(F)cccc2F)cc1` [Compound 8, N-[4-(5-Chloro-2-methoxy-pyridin-3-yl)-phenyl]-2,6-difluoro-benzamide, hydrochloride]: the IC50 stood at 520 nM in assay [1] (RBL) and 13 nM with IL-2 production.

In the case of `Cc1ccc(-c2nnn[nH]2)cc1-c1ccc(NC(=O)c2c(F)cccc2F)cc1` [Compound 6, 2,6-Difluoro-N-[2′-methyl-5′-(1H-tetrazol-5-yl)-biphenyl-4-yl]-benzamide], the IC50 in assay [1] came out at 5010 nM; in the assay with IL-2 production (Jurkat, 20 h) it was 9 nM.

Consider `COc1ncc(Cl)cc1-c1ccc(NC(=O)c2c(F)cccc2F)cc1` [Compound 5, N-[4-(5-Chloro-2-methoxy-pyridin-3-yl)-phenyl]-2,6-difluoro-benzamide], for which the IC50 in assay [1] is 1100 nM; with IL-2 production (Jurkat, 20 h), 1 nM.

Take `Cc1csc(-c2ccc(C)c(-c3ccc(NC(=O)c4c(F)cccc4F)cc3)c2)n1` [Compound 38, 2,6-Difluoro-N-[2′-methyl-5′-(4-methyl-thiazol-2-yl)-biphenyl-4-yl]-benzamide]: the IC50 in the assay on IL-2 production (Jurkat, 20 h) worked out at 3 nM.

Turning to `Cc1ccc(-c2nccs2)cc1-c1ccc(NC(=O)c2c(F)cncc2F)cc1` [Compound 28, 3,5-Difluoro-N-[5′-(thiazol-2-yl)-2′-methyl-biphenyl-4-yl]-isonicotinamide], the IC50 in the assay with IL-2 production (Jurkat, 20 h) is 7 nM.

In the case of `Cc1cnccc1C(=O)Nc1ccc(-c2cc(-c3cccnc3)ccc2C)cc1` [Compound 20, 3-Methyl-N-[5′-(pyridin-3-yl)-2′-methyl-biphenyl-4-yl]-isonicotinamide], the IC50 in the assay with IL-2 production (Jurkat, 20 h) came to 8 nM.

For the molecule `COc1ccc(-c2ncco2)cc1-c1ccc(NC(=O)c2c(F)cccc2F)cc1` [Compound 13, 2,6-Difluoro-N-(2′-methoxy-5′-oxazol-2-yl-biphenyl-4-yl)-benzamide], in the assay on IL-2 production (Jurkat, 20 h), the IC50 was 6 nM.

Turning to `Cc1ccc(-c2ccccn2)cc1-c1ccc(NC(=O)c2snnc2C)cc1` [Compound 24, 4-Methyl-[1,2,3]thiadazole-5-carboxylic acid [2′-methyl-5′-(pyridin-2-yl)-biphenyl-4-yl]-amide], the IC50 in the assay on IL-2 production (Jurkat, 20 h) is 15 nM.

Regarding `Cc1ccc(-c2ccccn2)cc1-c1ccc(NC(=O)c2c(F)cccc2F)cc1` [Compound 23, 2,6-Difluoro-N-[2′-methyl-5′-(pyridine-2-yl)-biphenyl-4-yl]-benzamide], the IC50 with IL-2 production (Jurkat, 20 h) was 5 nM.

As for `COc1ccc(-c2ncco2)cc1-c1ccc(NC(=O)c2c(F)cncc2F)cc1` [Compound 51, 3,5-Difluoro-N-[5′-(oxazol-2-yl)-2′-methoxy-biphenyl-4-yl]-isonicotinamide], the IC50 in the assay with IL-2 production (Jurkat, 20 h) worked out at 11 nM.

With `Cc1ccc(-c2noc(=O)[nH]2)cc1-c1ccc(NC(=O)c2c(F)cccc2F)cc1` [Compound 42, 2,6-Difluoro-N-[2′-methyl-5′-(5-oxo-4,5-dihydro-[1,2,4]-oxadiazol-3-yl)-biphenyl-4-yl]-benzamide], the IC50 with IL-2 production (Jurkat, 20 h) is > 1000 nM.

In the case of `Cc1ccc(-c2ccncc2)cc1-c1ccc(NC(=O)c2c(F)cccc2F)cc1` [Compound 30, 2,6-Difluoro-N-[2′-methyl-5′-(pyridine-4-yl)-biphenyl-4-yl]-benzamide], the IC50 with IL-2 production (Jurkat, 20 h) was found to be 3 nM.

On to `Cc1cnccc1C(=O)Nc1ccc(-c2cc(-c3ccno3)ccc2C)cc1` [Compound 34, 3-Methyl-N-[5′-(isoxazol-5-yl)-2′-methyl-biphenyl-4-yl]-isonicotinamide, HCl salt], for which, in the assay with IL-2 production, the IC50 worked out at 11 nM.

In the case of `CSc1nnc(-c2ccc(C)c(-c3ccc(NC(=O)c4c(F)cncc4F)cc3)c2)n1C` [Compound 75, 3,5-Difluoro-N-[2′-methyl-5′-(4-methyl-5-methylsulfanyl-4H-[1,2,4]triazol-3-yl)-biphenyl-4-yl]-isonicotinamide], the IC50 with IL-2 production (Jurkat, 20 h) was > 1000 nM.

Turning to `COC(=O)c1ccc(C)c(-c2ccc(NC(=O)c3c(F)cncc3F)cc2)c1` [Compound 4, 4′-[(3,5-Difluoro-pyridine-4-cabonyl)-amino]-6-methyl-biphenyl-3-carboxylic acid methyl ester], the IC50 in assay [1] was found to be 1450 nM; with IL-2 production (Jurkat, 20 h), 2 nM.

As to `Cc1cnccc1C(=O)Nc1ccc(-c2cc(-c3nnn[nH]3)ccc2C)cc1` [Compound 44, 3-Methyl-N-[2′-methyl-5′-(1H-tetrazol-5-yl)-biphenyl-4-yl]-isonicotinamide], the IC50 in the assay with IL-2 production (Jurkat, 20 h) was > 1000 nM.

On to `Cc1ccc(-c2nnc(N(C)C)s2)cc1-c1ccc(N(C)C(=O)c2c(F)cccc2F)cc1` [Compound 63, 2,6-Difluoro-N-{2′-methyl-5′-[5-(N,N-dimethylamino)-[1,3,4]thiadiazol-2-yl]-biphenyl-4-yl}-N-methyl-benzamide], for which the IC50 in the assay on IL-2 production (Jurkat, 20 h) is > 1000 nM.

On to `Cc1ccc(-c2ncco2)cc1-c1ccc(NC(=O)c2ccncc2F)cc1` [Compound 10, 3-Fluoro-N-(2′-methyl-5′-oxazol-2-yl-biphenyl-4-yl)-isonicotinamide], for which, in the assay with IL-2 production (Jurkat, 20 h), the IC50 is 3 nM.

Consider `Cc1ccc(-c2nccs2)cc1-c1ccc(NC(=O)c2c(F)cccc2F)cc1` [Compound 15, 2,6-Difluoro-N-(2′-methyl-5′-thiazol-2-yl-biphenyl-4-yl)-benzamide], for which the IC50 with IL-2 production (Jurkat, 20 h) was found to be 2 nM.

With `O=C(Nc1ccc(-c2cc(-c3nccs3)ccc2Cl)cc1)c1c(F)cccc1F` [Compound 56, 2,6-Difluoro-N-[2′-chloro-5′-(thiazol-2-yl)-biphenyl-4-yl]-benzamide], the IC50 with IL-2 production (Jurkat, 20 h) came to 2 nM.

As to `Cc1cc(-c2ccc(C)c(-c3ccc(NC(=O)c4c(F)cccc4F)cc3)c2)[nH]n1` [Compound 37, 2,6-Difluoro-N-[2′-methyl-5′-(3-methyl-1H-pyrazol-5-yl)-biphenyl-4-yl]-benzamide], in the assay on IL-2 production (Jurkat, 20 h), the IC50 stood at 11 nM.

In the case of `Cc1ccc(-c2nnc(N(C)C)s2)cc1-c1ccc(NC(=O)c2c(F)cccc2F)cc1` [Compound 64, 2,6-Difluoro-N-{2′-methyl-5′-[5-(N,N-dimethylamino)-[1,3,4]thiadiazol-2-yl]-biphenyl-4-yl}-benzamide], in the assay with IL-2 production (Jurkat, 20 h), the IC50 was 53 nM.
